This assay relates to BDF1 mice, P388 leukemia ip, median survival T/C. As to the kind of experiment: NCI In Vivo Anticancer Drug Screen. Data for tumor model P388 Leukemia (intraperitoneal) in B6D2F1 (BDF1) mice. Particulars: endpoint: median survival time, higher = longer survival. The gist of the method: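 Compound-treated tumour-bearing mice were compared with vehicle-treated controls. Survival was recorded, and the value is the treated-group measurement divided by the control-group measurement (T/C).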

The mark [1] stands for this setting: dose: 100.0 mg/kg/injection, schedule: Q04DX003 (ip), vehicle: saline with Tween-80.
Setting [2] is: dose: 25.0 mg/kg/injection, schedule: Q04DX003 (ip), vehicle: saline with Tween-80.
Where [3] appears, read: dose: 100.0 mg/kg/injection, schedule: Q01DX009 (ip), vehicle: saline with Tween-80.
Setting [4] is: dose: 200.0 mg/kg/injection, schedule: Q04DX003 (ip), vehicle: saline with Tween-80.
Where [5] appears, read: dose: 400.0 mg/kg/injection, schedule: Q04DX003 (ip), vehicle: saline with Tween-80.
Setting [6] is: dose: 100.0 mg/kg/injection, schedule: Q01DX009 (ip), vehicle: other.
The mark [7] stands for this setting: dose: 200.0 mg/kg/injection, schedule: Q01DX009 (ip), vehicle: other.

Values joined by “and” are separate entries in the source; they are usually repeats but may differ in a detail not shown here. Identical values can stand only once. Toxic doses and inconclusive results are not listed.

Consider `N#Cc1cnc2nc1NCCCCCCC2`, for which, under setting [1], the T/C was 86 % of control.
Turning to `CCCCCCCCCCCCOB(OCCCCCCCCCCCC)OCCCCCCCCCCCC`, the T/C is, setting by setting: (dose: 25.0 mg/kg/injection, schedule: Q01DX009 (ip), vehicle: saline with Tween-80) 100 % of control; under setting [2], 91 % of control; (dose: 50.0 mg/kg/injection, schedule: Q01DX009 (ip), vehicle: saline with Tween-80) 108 % of control; (dose: 50.0 mg/kg/injection, schedule: Q04DX003 (ip), vehicle: saline with Tween-80) 95 % of control; under setting [3], 100 % of control; under setting [1], 116 % of control.
On to `O=P(N1CC1)(N1CC1)N1CC1`, for which the T/C (dose: 3.0 mg/kg/injection, schedule: Q01DX010 (ip), vehicle: saline) is 204 % of control.
As to `Cn1c2ccccc2c(=O)c2ccc(Cl)cc21`, the T/C under setting [1] is 105 % of control, the T/C under setting [4] is 105 % of control and the T/C under setting [5] is 100 % of control.
Regarding `CCCOC1=C(N2CC2)C(=O)C(OCCC)=C(N2CC2)C1=O`, the T/C reads like this: (dose: 2.2 mg/kg/injection, schedule: Q04DX003 (ip), vehicle: saline with Tween-80) 117 % of control; (dose: 5.55 mg/kg/injection, schedule: Q04DX003 (ip), vehicle: saline with Tween-80) 200 % of control; (dose: 7.5 mg/kg/injection, schedule: Q04DX003 (ip), vehicle: saline with Tween-80) 165 % of control; (dose: 8.33 mg/kg/injection, schedule: Q04DX003 (ip), vehicle: saline with Tween-80) 163 % of control and 200 % of control; (dose: 12.5 mg/kg/injection, schedule: Q04DX003 (ip), vehicle: saline with Tween-80) 186 % of control and 200 % of control and 218 % of control; (dose: 18.7 mg/kg/injection, schedule: Q04DX003 (ip), vehicle: saline with Tween-80) 245 % of control and 260 % of control. Also, the T/C under setting [2] was 163 % of control.
On to `O=C(CSc1ncnc2nc[nH]c12)c1ccccc1`, for which the T/C reads like this: under setting [3], 104 % of control; under setting [1], 86 % of control; (dose: 200.0 mg/kg/injection, schedule: Q01DX009 (ip), vehicle: saline with Tween-80) 104 % of control; under setting [4], 100 % of control; (dose: 400.0 mg/kg/injection, schedule: Q01DX009 (ip), vehicle: saline with Tween-80) 100 % of control; under setting [5], 91 % of control.
`CSc1cc(C)c(O)c(CO)c1`: the T/C was 100 % of control under setting [6]; 95 % of control under setting [7]; 95 % of control (dose: 400.0 mg/kg/injection, schedule: Q01DX009 (ip), vehicle: other).
For the molecule `CN(C)C1=C(N2CC2)C(=O)C(N(C)C)=C(N2CC2)C1=O`, the T/C is, setting by setting: (dose: 0.25 mg/kg/injection, schedule: Q01DX009 (ip), vehicle: saline) 87 % of control; (dose: 0.5 mg/kg/injection, schedule: Q01DX009 (ip), vehicle: saline) 151 % of control; (dose: 1.0 mg/kg/injection, schedule: Q01DX009 (ip), vehicle: saline) 174 % of control.
`Cc1cc(=O)c2cc(N)ccc2[nH]1`: the T/C runs as follows: (dose: 25.0 mg/kg/injection, schedule: Q01DX009 (ip), vehicle: water) 110 % of control; (dose: 50.0 mg/kg/injection, schedule: Q01DX009 (ip), vehicle: water) 94 % of control; (dose: 50.0 mg/kg/injection, schedule: Q04DX003 (ip), vehicle: water) 102 % of control; (dose: 100.0 mg/kg/injection, schedule: Q01DX009 (ip), vehicle: water) 91 % of control; (dose: 100.0 mg/kg/injection, schedule: Q04DX003 (ip), vehicle: water) 106 % of control; (dose: 200.0 mg/kg/injection, schedule: Q01DX009 (ip), vehicle: water) 119 % of control. Moreover, the T/C reads like this: (dose: 200.0 mg/kg/injection, schedule: Q04DX003 (ip), vehicle: water) 113 % of control; (dose: 400.0 mg/kg/injection, schedule: Q01DX009 (ip), vehicle: water) 92 % of control; (dose: 400.0 mg/kg/injection, schedule: Q04DX003 (ip), vehicle: water) 103 % of control.
As for `COc1cc2c(c(OC)c1OC)-c1ccc(OC)c(=O)cc1[C@@H](NC(=O)c1ccccc1)CC2`, the T/C is 112 % of control (dose: 0.06 mg/kg/injection, schedule: Q01DX009 (ip), vehicle: saline sonified); 116 % of control (dose: 0.12 mg/kg/injection, schedule: Q01DX009 (ip), vehicle: saline sonified); 163 % of control (dose: 0.5 mg/kg/injection, schedule: Q01DX009 (ip), vehicle: saline sonified); 190 % of control (dose: 1.0 mg/kg/injection, schedule: Q01DX009 (ip), vehicle: saline sonified); 254 % of control and 109 % of control (dose: 2.0 mg/kg/injection, schedule: Q01DX009 (ip), vehicle: saline sonified); 159 % of control (dose: 3.3 mg/kg/injection, schedule: Q04DX003 (ip), vehicle: saline). The T/C is, setting by setting: (dose: 4.0 mg/kg/injection, schedule: Q01DX009 (ip), vehicle: saline sonified) 272 % of control; (dose: 5.0 mg/kg/injection, schedule: Q04DX003 (ip), vehicle: saline) 200 % of control; (dose: 6.0 mg/kg/injection, schedule: Q01DX009 (ip), vehicle: saline sonified) 162 % of control; (dose: 7.5 mg/kg/injection, schedule: Q04DX003 (ip), vehicle: saline) 204 % of control.
For the molecule `O=[N+]([O-])/C=C\c1ccc2c(c1)OCO2`, the T/C is 111 % of control and 120 % of control (dose: 25.0 mg/kg/injection, schedule: Q01DX009 (ip), vehicle: Klucel (hydroxypropylcellulose) (HPC)); 105 % of control (dose: 35.0 mg/kg/injection, schedule: Q01DX009 (ip), vehicle: Klucel (hydroxypropylcellulose) (HPC)); 95 % of control (dose: 75.0 mg/kg/injection, schedule: Q01DX009 (ip), vehicle: Klucel (hydroxypropylcellulose) (HPC)); 100 % of control and 105 % of control (dose: 100.0 mg/kg/injection, schedule: Q01DX009 (ip), vehicle: Klucel (hydroxypropylcellulose) (HPC)); 104 % of control (dose: 100.0 mg/kg/injection, schedule: Q04DX003 (ip), vehicle: Klucel (hydroxypropylcellulose) (HPC)); 108 % of control (dose: 200.0 mg/kg/injection, schedule: Q04DX003 (ip), vehicle: Klucel (hydroxypropylcellulose) (HPC)).
For the molecule `CCN(CC)CCCNc1ncnc2onc(-c3ccccc3)c12`, the T/C (dose: 50.0 mg/kg/injection, schedule: Q01DX009 (ip), vehicle: other) is 107 % of control; the T/C under setting [6] was 105 % of control; the T/C under setting [7] was 96 % of control.
Turning to `O=C1C=C(C2OC(CO)C(O)C2O)C(=O)N1` (stereo unspecified), the T/C runs as follows: (dose: 0.2 mg/kg/injection, schedule: Q01DX010 (ip), vehicle: saline) 110 % of control; (dose: 0.37 mg/kg/injection, schedule: Q01DX001 (ip), vehicle: saline) 95 % of control; (dose: 0.5 mg/kg/injection, schedule: Q01DX010 (ip), vehicle: saline) 110 % of control; (dose: 0.75 mg/kg/injection, schedule: Q01DX001 (ip), vehicle: saline) 91 % of control; (dose: 1.5 mg/kg/injection, schedule: Q01DX001 (ip), vehicle: saline) 95 % of control; (dose: 2.0 mg/kg/injection, schedule: Q01DX010 (ip), vehicle: saline) 150 % of control. For the same molecule, the T/C is 110 % of control (dose: 3.0 mg/kg/injection, schedule: Q01DX001 (ip), vehicle: saline); 100 % of control (dose: 6.0 mg/kg/injection, schedule: Q01DX001 (ip), vehicle: saline); 150 % of control and 155 % of control and 157 % of control (dose: 8.0 mg/kg/injection, schedule: Q01DX010 (ip), vehicle: saline); 100 % of control (dose: 12.0 mg/kg/injection, schedule: Q01DX001 (ip), vehicle: saline); 121 % of control (dose: 16.0 mg/kg/injection, schedule: Q01DX010 (ip), vehicle: saline).
For `N#CC(/C=C/c1ccccc1)Nc1ccccc1C(N)=O` (stereo unspecified), the T/C reads like this: (dose: 25.0 mg/kg/injection, schedule: Q01DX001 (ip), vehicle: saline with Tween-80) 109 % of control; (dose: 50.0 mg/kg/injection, schedule: Q01DX001 (ip), vehicle: saline with Tween-80) 104 % of control; (dose: 100.0 mg/kg/injection, schedule: Q01DX001 (ip), vehicle: saline with Tween-80) 100 % of control.
Consider `CC1=CC(=O)c2ccccc2C1=O`, for which the T/C by setting is: (dose: 8.8 mg/kg/injection, schedule: Q01DX010 (ip), vehicle: carboxymethylcellulose (CMC)) 110 % of control; (dose: 13.3 mg/kg/injection, schedule: Q01DX010 (ip), vehicle: carboxymethylcellulose (CMC)) 110 % of control; (dose: 20.0 mg/kg/injection, schedule: Q01DX010 (ip), vehicle: carboxymethylcellulose (CMC)) 90 % of control; (dose: 30.0 mg/kg/injection, schedule: Q01DX010 (ip), vehicle: carboxymethylcellulose (CMC)) 115 % of control.

For the origin of these results see PubChem BioAssay AID328 (DTP/NCI, 2004).
